Molecules are shown by their SMILES. Where a name gives a salt, the structure may show the parent alone.

One assay relates to fibromyalgia. In words: Physician observation, Patient A: fibromyalgia. Particulars: Relievz lotion twice daily to affected areas, pregabalin 400 mg daily, other products as previously used. The format is in vivo, human.
The subject of assay [1] is sciatica and neuropathy (diabetic neuropathy). Description: Physician observation, Patient B: sciatica and diabetic neuropathy. The assay is classed as in vivo, human. The note with it: lotion applied to affected areas. An excerpt:
The patient continues to use Relievz™ lotion daily.

With `CNCC[C@H](Oc1cccc2ccccc12)c1cccs1` [Cymbalta®, duloxetine HCl], the “relief of fibromyalgia symptoms” value in the assay on fibromyalgia is given as “no relief”. As for `NCC1(CC(=O)O)CCCCC1` [gabapentin], the pain and ambulation result in assay [1] is on record as “continued pain”. As for `CC(C)C[C@H](CN)CC(=O)O` [pregabalin], the “relief of fibromyalgia symptoms” value in the assay with fibromyalgia is listed as “no relief”. For the compound `CC(C)C[C@H](CN)CC(=O)O` [pregabapentin], in assay [1], the pain and ambulation result was “continued pain”.

The values above are taken from patent US20120034320A1, “Skin Penetration Composition” (DOMINION RESOURCES, UNLIMITED, LLC, priority 2010, published 2012).
